COC(=O)C1=C(C)NC(C)=C(C(=O)OCC(C)C)C1c1ccccc1[N+](=O)[O-] (stereo not given)
solubility (mole fraction)
Settings	278.15 K	283.15 K	288.15 K	293.15 K	298.15 K	303.15 K	308.15 K	313.15 K	318.15 K
in acetonitrile	0.00826	0.00998	0.0121	0.0145	0.0173	0.0204	0.0241	0.0281	0.0329
in ethyl acetate	0.016	0.0185	0.0214	0.0248	0.0286	0.0324	0.037	0.0419	0.0477
in isopropanol	0.00483	0.00578	0.00688	0.0081	0.00956	0.0111	0.0129	0.015	0.0172
in n-propanol	0.00367	0.00448	0.00553	0.00673	0.00811	0.0097	0.0115	0.0136	0.0162
in water	3.79e-06	5.04e-06	6.75e-06	8.67e-06	1.17e-05	1.51e-05	1.94e-05	2.47e-05	3.09e-05

— BigSolDB 2.1
